Data as given in ChEMBL document CHEMBL2040781, “Design, synthesis, and biological evaluation of chromone-based p38 MAP kinase inhibitors” (J Med Chem, 2011).

molecular target: Mitogen-activated protein kinase 14 (Homo sapiens, UniProt Q16539); assay: Inhibition of p38alpha MAPK after 40 mins by scintillation counting
Sequence (Q16539 whole entry): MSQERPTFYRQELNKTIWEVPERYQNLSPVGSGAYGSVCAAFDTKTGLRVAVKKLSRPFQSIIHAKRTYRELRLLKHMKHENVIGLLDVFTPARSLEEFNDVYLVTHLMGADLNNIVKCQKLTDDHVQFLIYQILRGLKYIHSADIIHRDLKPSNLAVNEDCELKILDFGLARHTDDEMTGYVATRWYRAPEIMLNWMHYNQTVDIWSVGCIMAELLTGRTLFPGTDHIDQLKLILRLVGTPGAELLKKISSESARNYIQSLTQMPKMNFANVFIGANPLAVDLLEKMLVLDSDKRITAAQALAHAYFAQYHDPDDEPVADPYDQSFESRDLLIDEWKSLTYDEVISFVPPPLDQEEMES

Structure (SMILES)	IC50 [nM]
CN(C)CCCNc1cc(-c2oc3ccccc3c(=O)c2-c2ccc(F)cc2)ccn1	761
O=c1c(-c2ccc(F)cc2)c(-c2ccnc(NC3CCOCC3)c2)oc2ccccc12	45
O=c1c(-c2ccc(F)cc2)c(-c2ccnc(Cl)c2)oc2ccccc12	1380
CCCCNc1cc(-c2oc3ccccc3c(=O)c2-c2ccc(F)cc2)ccn1	21
COCCCNc1cc(-c2oc3ccccc3c(=O)c2-c2ccc(F)cc2)ccn1	39
O=c1c(-c2ccc(F)cc2)c(-c2ccnc(NCc3ccccc3)c2)oc2ccccc12	35
O=c1c(-c2ccc(F)cc2)c(-c2ccncc2)oc2ccccc12	813
